Measurements taken from patent US20220241223A1, “USE OF DISULFIRAM OR ITS DERIVATIVES FOR THE TREATMENT OF MITOCHONDRIAL DISEASES OR DYSFUNCTION” (Universite D'angers, priority 2019, published 2022).

Experiments:
Δcoa6 cells = assay: Growth in liquid non-fermentable medium with increasing DSF concentrations; assay type: cell-based; conditions: Saccharomyces cerevisiae, 40 h, read-out: toxic dose (IC50)
Procedure: Exponentially growing cells were inoculated in fresh non-fermentable YPG or YPE media supplemented, or not, with increasing DSF concentrations.
More precisely, the shy1-G137R and Δcoa6 cells have been grown for 40 h in liquid medium containing 2% glycerol and 0.1% galactose as carbon source and increasing concentrations of DSF (100 nM to 6 μM). The A29G and fmc1Δ cells have been grown for 48 h in liquid medium containing 2% glycerol as carbon source and increasing concentrations of DSF (50 nM to 5 μM). The taz1Δ and sym1Δ cells have been grown for 48 h in rich liquid medium containing 2% ethanol/0.2% galactose and 2% glycerol/2% ethanol as a carbon source, respectively, and increasing concentrations of DSF (100 nM to 9 μM).

[1] = system: JCP239 NARP (T8993G) cybrid cell line; assay: NARP cybrid growth in glucose-deprived medium; assay type: cell-based, human; conditions: FIG. 3, low concentrations (from 1 nM), 5 days
Procedure: FIG. 3: Effect of DSF on NARP cybrid cell lines (JCP239 NARP (T8993G)) grown in glucose deprived medium. DHLA (dihydrolipoic acid) was used as a positive control, as in previous studies (Couplan E et al. & Aiyar R S et al.). Various concentrations of DSF were tested as indicated. After 5 days of treatment by DSF, or DMSO (negative control), or DHLA (positive control), followed by a trypsin treatment, the number of living cells was determined using a Scepter Counter (Millipore). All cell counts were expressed relative to DMSO values set at 100%. This experiment has been repeated two times in triplicates and error bars represent the standard deviation. For each condition, the mean values of the resulting six points is indicated and compared to the negative control (DMSO-treated cells) using the Student's t-test (*P=0.0153; **P=0.0025; ***P<0.0001). […]

[2] = system: mitochondrial complex I respiration in MELAS neuronal cybrid cells; assay: Complex I linked respiration in permeabilized MELAS cybrid cells (Oroboros oxygraph); assay type: cell-based, human; conditions: 48 h exposure, low glucose medium (0.5 g/l)
Procedure: FIG. 6: Effect of DSF on mitochondrial complex I respiration in MELAS neuronal cybrid cells after 48 h exposure in low glucose medium (0.5 g/l).
FIG. 7: Effect of DSF at 10 nM after 48 h exposure on mitochondrial complex I (left) and complex IV (right) respiration in permeabilized MELAS neuronal cybrid cells, in low glucose medium (0.5 g/l).
Cellular oxygen consumption was measured at 37° C. in MELAS cybrid cells treated vs untreated mutant cells on a high-resolution oxygraph (Oroboros), as described elsewhere (Desquiret-Dumas et al., 2012).
Briefly treated and untreated mutant cells were trypsinized and the pellet was resuspended in the respiratory buffer (KH2PO4 10 mM, mannitol 300 mM, KCl 10 mM, MgCl2 5 mM, pH 7.4) containing 15 μg/million cells of digitonin. Cells were incubated at room temperature during 2.5 minutes and the digitonin action was stopped by adding five volumes of the respiration buffer supplemented with 1 mg/ml of BSA. […] The oxygen consumption was measured in state II (5 mM malate+pyruvate), state III (5 mM malate+pyruvate+1.5 mM ADP+0.5 mM NAD or 5 mM succinate+10 μM rotenone+1.5 mM ADP+0.5 mM NAD), state IV (8 μg/ml oligomycin) and maximal cytochrome c oxidase capacity (4 mM ascorbate+0.2 mM TMPD). After oxygraphic measurement, […] of cell suspension was removed from the chamber and the protein concentration was measured using bicinchoninic acid.

[3] = system: neuronal MELAS cybrid cells; assay: Lactate production in MELAS cybrid cells; assay type: cell-based, human; conditions: FIG. 8, MELAS cybrids
Procedure: FIG. 8: Determination of the maximal DSF concentration nontoxic for lactate production in neuronal MELAS cybrid cells. Range of DSF concentrations from 100 nM to 10 μM.
Lactate concentrations in the culture media were determined by spectrophotometry on a Hitachi-Roche apparatus following the recommendations of the manufacturer (Roche Diagnosis, Bale, Switzerland). Increased lactate concentration in supernatant of cell culture is witnessing glycolytic adaptation at the expense of mitochondrial function with reduced oxidative mitochondrial metabolism correlated with high concentrations and drug toxicity of DSF.

[4] = in e.g. alcohol or chloroform; cited from earlier work

CCN(CC)C(=S)SSC(=S)N(CC)CC [DSF, 1-(diethylthiocarbamoyldisulfanyl)-N,N-diethyl-methanethioamide]
IC50 (Δcoa6 cells): 3.1 µM | effect on growth of NARP cybrids [1]: significant positive effect | effect on complex I linked respiration ([2]; FIG. 6, various concentrations): increases complex I linked respiration | effect on complex I linked respiration ([2]; FIG. 7, 10 nM, permeabilized cells): increases mitochondrial complex I | DSF concentration with impact on lactate production (drug toxicity) ([3]; also at 3 μM or 10 μM): ≥ 1 µM | DSF concentration with no impact on lactate production ([3]; range 100 nM to 10 μM): lower than 1 μM | solubility [4]: high solubility
